GI50 and TGI data for twelve compounds are collected here from PubChem BioAssay (NCI).

What all share (assay): growth of human tumour cells (NCI), 48 h
Test [1] has as its system 786-0 renal.
The test system of test [2] is A498 renal.
Test [3] concerns COLO 205 colon.
In test [4] the test system is LOX IMVI melanoma.
The subject of test [5] is MCF7 breast.
Test [6] deals with NCI-H460 lung.
Test [7] deals with RPMI-8226 leukemia.
Test [8] deals with SF-539 CNS.
Test [9] has as its system SNB-75 CNS.
The test system of test [10] is UACC-257 melanoma.

The structures appear in SMILES notation.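 1) Cells in 96-well plates. 2) Compound, 48 h, 5 concentrations. 3) Linear interpolation between surrounding doses. 4) Unreached endpoint = highest concentration. Abbreviation: GI50, concentration required for 50% inhibition of growth. Definition used: TGI = concentration required for complete inhibition of growth.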 Bounds are passed on as bounds.

With `Fc1ccc(-c2nn(-c3ccccc3)cc2-c2nc3ccccc3o2)cc1`, the GI50 is 15 µM in test [1]; 2.97 µM in test [2]; 15.1 µM in [3]; 2.36 µM in test [4]; 0.539 µM in [5]; 2.84 µM in test [6]. Moreover, the GI50 in [7] was 1.05 µM; in test [8], 8.88 µM; in test [9] it was 9.89 µM; in [10] it was 13.3 µM. Further, the TGI was above 100 µM in test [1]; 56.7 µM in test [2]; 30.5 µM in test [3]; 12.4 µM in test [4]; above 100 µM in test [5]; 9.95 µM in [6]. Also, the TGI in test [7] stood at 9.3 µM; in test [8] it was 28.7 µM; in test [9], 33.4 µM; in test [10], 48.2 µM.

Consider `CCOc1ccc2nc(NC(=O)/C(CC(=O)CC(C3=C(O)c4ccccc4CC3=O)c3ccccc3)=N\O)sc2c1` (stereo not given), for which the TGI in test [1], in test [2], in test [3], in [4], in test [5] and in test [6] was above 100 µM in each case. The TGI in test [7], in test [8], in test [9] and in test [10] was above 100 µM throughout.

Consider `CC1=C(CCCOC(=O)NCCCl)C2=C(C)C3(CC3)[C@@](C)(O)C(=O)C2=C1`, for which the GI50 in test [1] was 2.71 µM; in [2], 1.88 µM; in test [3], 2.06 µM; in test [4] it was 3.13 µM; in [5], 2.24 µM; in [6] it was 2.42 µM. Moreover, the GI50 is 8.4 µM in test [7], 2.04 µM in test [8], 1.75 µM in test [9] and 3.91 µM in test [10]. Moreover, the TGI in test [1] is 8.16 µM; in test [2], 3.95 µM; in test [3], 6.65 µM; in test [4], 19.8 µM; in test [5], above 100 µM; in test [6] it was 13.6 µM. Moreover, the TGI in [7] is 40.1 µM; in [8], 5.5 µM; in test [9], 3.84 µM; in test [10], above 100 µM.

On to `COc1ccc(CN2CCCC(C(=O)c3ccc(C(F)(F)F)cc3)C2)c(O)c1` (stereo not given), for which the GI50 was 17.3 µM in test [1]; 0.0189 µM in test [2]; 19.3 µM in [3]; 18.4 µM in test [4]; 18 µM in [5]; 26.7 µM in test [6]. Also, the GI50 is 22 µM in [7], 18.8 µM in test [8], 18.4 µM in test [9] and 24.2 µM in test [10]. Moreover, the TGI is 40.4 µM in test [1]; 33.1 µM in test [2]; 36.7 µM in test [3]; 35.3 µM in [4]; 54.7 µM in test [5]; above 100 µM in test [6]. The TGI was 62.4 µM in [7], 46.1 µM in test [8], above 100 µM in test [9] and 74.4 µM in [10].

Consider `CCOC(=O)c1cc(-c2ccc([N+](=O)[O-])cc2)n(-c2ccc(C(=O)O)c(O)c2)c1C`, for which the GI50 was 4.84 µM in test [1]; 10.1 µM in test [2]; 1.6 µM in test [3]; 2.85 µM in [4]; 3.58 µM in test [5]; 4.16 µM in test [6]. Further, the GI50 is 0.148 µM in [7], 10.6 µM in test [8], 7.65 µM in test [9] and 9.2 µM in [10]. In addition, the TGI in [1] came to 17.2 µM; in [2], 21.9 µM; in test [3] it was 3.84 µM; in test [4], 11 µM; in test [5], 13.7 µM; in test [6], 17 µM. The TGI in test [7] is above 100 µM; in test [8], 22.5 µM; in [9] it was 22.1 µM; in [10], 22 µM.

On to `CN=C1NC(=O)/C(=C/c2ccc3ncccc3c2)S1`, for which the GI50 in [1] was 10.7 µM; in test [2] it was 3.86 µM; in test [3], 7.45 µM; in [4], 6.74 µM; in [5] it was 6.21 µM; in test [6], 7.79 µM. The GI50 in [7] is 12.1 µM; in [8], 5.88 µM; in test [9], 3.8 µM; in test [10], 7.18 µM. For the same compound, the TGI in [1] was above 25 µM; in test [2] it was 13.7 µM; in test [3], above 25 µM; in [4], above 25 µM; in test [5] it was above 25 µM; in test [6] it was above 25 µM. Besides, the TGI in [7] is above 25 µM; in test [8], above 25 µM; in test [9], above 21.2 µM; in [10], above 25 µM.

On to `COC(=O)[C@@H](C)C[C@H](Cc1ccccc1)NC(=O)c1nc([C@@H](C[C@H](C(C)C)N(C)C(=O)[C@@H](NC(=O)[C@H]2CCCN2C)C(C)C)OC(C)=O)sc1C`, for which the GI50 was below 0.0025 µM in test [1]; below 0.0025 µM in test [2]; 0.00275 µM in [3]; 0.00837 µM in test [4]; below 0.0025 µM in [5]; below 0.0025 µM in [6]. The GI50 in test [7] was below 0.0025 µM; in test [8], 0.00339 µM; in [9] it was below 0.0025 µM; in test [10], above 25 µM. Also, the TGI in test [1] is 24.2 µM; in test [2] it was 0.00808 µM; in [3] it was 0.0326 µM; in [4], above 25 µM; in test [5], above 25 µM; in [6], above 25 µM. Moreover, the TGI in test [7] was above 25 µM; in [8] it was 0.201 µM; in test [9], above 25 µM; in test [10], above 25 µM.

As for `N#Cc1c(O)c2c(c(O)c1C#N)C(=O)c1ccccc1C2=O`, the GI50 in test [1] was 2.45 µM; in test [2], 1.39 µM; in [3], 1.78 µM; in test [4] it was 0.349 µM; in [5] it was 1.46 µM; in test [6], 1.04 µM. Besides, the GI50 is 1.42 µM in [7], 2.6 µM in test [8], 1.37 µM in test [9] and 1.57 µM in test [10]. Besides, the TGI was 5.45 µM in test [1]; 16.4 µM in [2]; 4.13 µM in [3]; 4.29 µM in test [4]; 3.76 µM in test [5]; above 33.8 µM in test [6]. The TGI in [7] turned out to be 4.67 µM; in test [8], 5.53 µM; in test [9], 3.94 µM; in test [10], 4.82 µM.

With `N#Cc1cnn2ccn(C3OC(COC(=O)c4ccccc4)C(OC(=O)c4ccccc4)C3OC(=O)c3ccccc3)c12` (stereo not given), the TGI in [1] is above 21.5 µM; in test [2], 21.5 µM; in test [3], above 21.5 µM; in [4], above 31.6 µM; in test [5], above 46.4 µM; in test [6], above 21.5 µM. Besides, the TGI was above 21.5 µM in test [7], above 21.5 µM in [8], 21.5 µM in [9] and above 21.5 µM in test [10].

In the case of `CN(C)c1ccc2c(c1)oc(=O)c1ccccc12`, the TGI in test [1] turned out to be 26.5 µM; in test [2], 33 µM; in [3], 24.7 µM; in test [4], 18.7 µM; in test [5], 17.1 µM; in [6], 58 µM. For the same compound, the TGI in test [7] was determined as 28.8 µM; in test [8] it was 35.5 µM; in [9], 31.9 µM; in [10], 28.3 µM.

For the compound `ClCc1ccccc1CSc1ncnc2nc[nH]c12`, the GI50 in test [1] is above 60 µM; in [2] it was 54.1 µM; in test [3] it was above 60 µM; in test [4], above 60 µM; in test [5], 53 µM; in [6] it was above 60 µM. Further, the GI50 in [7], in test [8], in [9] and in test [10] was above 60 µM each time. Further, the TGI in test [1], in test [2], in test [3], in test [4], in test [5] and in test [6] was above 60 µM throughout. Besides, the TGI in test [7], in test [8], in test [9] and in test [10] was above 60 µM in each case.

Take `CC(=O)c1ccc(N(/C=C/C(=O)C(F)(F)F)CC(=O)c2ccc(Cl)c(Cl)c2)cc1`: the GI50 in test [1] was 17.8 µM; in test [2] it was 14.5 µM; in test [3] it was 22.6 µM; in [4], 12.4 µM; in test [5], 15.3 µM; in test [6] it was 15.6 µM. Moreover, the GI50 in test [7] is 9.64 µM; in [8] it was 20.5 µM; in test [9], 18 µM; in test [10], 15.2 µM. The TGI in test [1] was 32 µM; in test [2], 28.2 µM; in test [3], 65 µM; in [4], 26.8 µM; in test [5] it was 65.3 µM; in test [6] it was above 100 µM. Moreover, the TGI in test [7] was determined as 36.6 µM; in test [8], 36.6 µM; in test [9] it was 38.3 µM; in test [10], 29.4 µM.
